Read-outs that look alike come from different tables or passages of the source.
How the values were obtained:
δ-opioid receptor [1] = target: T1, δ-opioid receptor (Homo sapiens, UniProt P41143); assay: Scintillation screening assay for δ-opioid receptor binding ([3H]bremazocine); settings: cloned human receptor in CHO cell membranes, [3H]bremazocine 2.4 nM; for inhibition at 25 µM: read-out: δ-Opioid Receptor Binding (% Inhibition), % I @ 25 μM
T1 construct: purchased Receptor Biology, Baltimore, Md; host or cells: CHO cells (membranes)
Excerpt: Scintillation Screening Assay for δ-Opioid Receptor Binding
This is a receptor based screen to detect the competitive binding of test compounds at the δ-opioid receptor against the radioligand, [^3H]bremazocine (S.A.=25.5 Cl/mmol, Dupont/NEN, Cambridge, Mass.). Unknown compounds that bind to the same receptor as the radioligand will compete for the receptor and reduce the amount of radioligand which binds to the receptor. This is detected as a decreased scintillation signal from that particular incubation. The greater affinity an unknown has for the receptor, the larger the observed decrease in […] to the receptor; thus the assay is in the format of an inhibition study.
The receptor is a cloned human cDNA expressed in mammalian CHO cells. Membranes prepared from these cells are purchased from Receptor Biology, Baltimore, Md. The reaction buffer is composed as follows: HEPES (50 mM final), MgCl.6H2O (5 mM final), o-phenanthroline (20 mg/l), aprotinin (10 mg/l), Pefabloc SC (250 mg/l), leupeptin (0.5 mg/l), pepstatin A (0.7 mg/l), trypsin inhibitor (25 mg/l), chymostatin (10 mg/l), pH=7.2. Naloxone, 10 uM, is used to define non-specific binding. The assay employs filtration to capture receptor and bound ligand.
The receptor (membrane) preparation (28 ug protein) is allowed to incubate with the opioid receptor radioligand ([^3H]bremazocine, 2.4 nM) in 96-well plates until equilibrium is reached (>2 hr). Following incubation with the radioligand at 23° C., the well contents are filtered onto 96-well Whatman GF/C filter plates using a Packard cell harvester. Radioligand bound to the receptor also remains on the filter. The filters are rinsed three times with 0.5 mL of physiological saline (0.9% NaCl) to remove any unbound radioligand from the filter. Filters are dried and scintillation fluid is then added to the filters which emits light in proportion to the amount of radioactivity on the filter which is determined using an Packard Topcount scintillation counter. Data are reported as percent inhibition of control binding.

δ-opioid receptor [2] = target: δ-opioid receptor (Rattus norvegicus, UniProt P33533); assay: Rat brain δ-opioid receptor binding assay ([3H]DPDPE)
μ-opioid receptor = μ-opioid receptor (Rattus norvegicus, UniProt P33535); assay: Rat brain μ-opioid receptor binding assay ([3H]DAMGO)
[3] = system: acetylcholine bromide-induced abdominal constriction response; assay: Mouse acetylcholine bromide-induced abdominal constriction assay (MAIT); type: in vivo; settings: po, 0.5 h, 150 μmole/Kg p.o., acetylcholine bromide 5.5 mg/kg i.p. 30 min later
Description: The mouse acetylcholine-induced abdominal constriction assay, as described by Collier et al. in […]., 32: 295-310, 1968 with minor modifications, was used to assess analgesic potency of the compounds of formula (I). The test drugs or appropriate vehicles were administered orally (p.o.) and 30 min later the animal received an intraperitoneal (i.p.) injection of 5.5 mg/kg acetylcholine bromide (Matheson, Coleman and Bell, East Rutherford, N.J.). The mice were then placed in groups of three into glass bell jars and observed for a ten min observation period for the occurrence of an abdominal constriction response (defined as a wave of constriction and elongation passing caudally along the abdominal wall, accompanied by a twisting of the trunk and followed by extension of the hind limbs). For compounds of the present invention, the percent inhibition of this response to a nociceptive stimulus (equated to % analgesia) was calculated as follows: [formula]

[4] = rat forebrain preparation, [3H]DPDPE, 25° C., read-out: δ-Opioid Receptor Binding (Ki nM)
[5] = rat forebrain preparation, [3H]DAMGO, 25° C., read-out: μ-Opioid Receptor Binding (Ki nM)

T1 sequence (P41143 whole entry): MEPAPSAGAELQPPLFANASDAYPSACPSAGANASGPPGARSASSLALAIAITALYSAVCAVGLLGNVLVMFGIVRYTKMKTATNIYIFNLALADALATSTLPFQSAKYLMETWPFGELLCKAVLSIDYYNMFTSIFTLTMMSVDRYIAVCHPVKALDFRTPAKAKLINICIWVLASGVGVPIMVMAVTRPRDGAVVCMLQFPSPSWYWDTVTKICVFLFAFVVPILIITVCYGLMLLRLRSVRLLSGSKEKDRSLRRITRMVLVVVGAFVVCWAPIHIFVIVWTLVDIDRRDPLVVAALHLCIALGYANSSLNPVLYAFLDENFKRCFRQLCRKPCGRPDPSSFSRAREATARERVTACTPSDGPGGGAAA
Sequence of μ-opioid receptor (P33535 whole entry): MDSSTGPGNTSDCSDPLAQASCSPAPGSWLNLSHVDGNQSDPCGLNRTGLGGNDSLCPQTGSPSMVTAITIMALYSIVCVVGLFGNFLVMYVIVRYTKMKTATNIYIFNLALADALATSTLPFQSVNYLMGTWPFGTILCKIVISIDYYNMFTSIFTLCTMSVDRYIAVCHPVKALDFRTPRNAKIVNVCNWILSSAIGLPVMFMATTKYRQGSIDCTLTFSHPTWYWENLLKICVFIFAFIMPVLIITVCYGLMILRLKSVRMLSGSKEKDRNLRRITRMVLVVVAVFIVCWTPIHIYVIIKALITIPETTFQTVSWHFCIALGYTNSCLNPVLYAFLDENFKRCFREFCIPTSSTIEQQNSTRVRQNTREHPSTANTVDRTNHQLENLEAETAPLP
Sequence of δ-opioid receptor (Rattus norvegicus, UniProt P33533) (P33533 whole entry): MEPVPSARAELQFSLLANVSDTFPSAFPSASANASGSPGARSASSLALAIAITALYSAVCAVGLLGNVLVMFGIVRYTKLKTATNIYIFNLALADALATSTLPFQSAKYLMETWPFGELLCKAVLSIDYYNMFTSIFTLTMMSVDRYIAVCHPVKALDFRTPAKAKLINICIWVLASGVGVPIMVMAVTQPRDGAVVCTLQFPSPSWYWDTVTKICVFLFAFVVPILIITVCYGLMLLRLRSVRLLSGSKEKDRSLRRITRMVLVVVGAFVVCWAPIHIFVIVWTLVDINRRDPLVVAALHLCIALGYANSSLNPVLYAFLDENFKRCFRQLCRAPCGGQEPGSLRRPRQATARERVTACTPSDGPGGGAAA

Row | Compound | inhibition at 25 µM (δ-opioid receptor [1]) [%] | Ki (δ-opioid receptor [2]) [nM] | Ki (μ-opioid receptor) [nM] | Ki (δ-opioid receptor [2]; [4]) [nM] | Ki (μ-opioid receptor; [5]) [nM] | inhibition in vivo at 150 µmol/kg [3] [%] | δ-Opioid Receptor Binding (% Inhibition), % I @ 25 μM (δ-opioid receptor [1]) [%]
1 | CCN1CCN(C(=Nc2cccc(F)c2)c2ccc(C(=O)N(CC)CC)cc2)CC1 [Compound 9, N,N-diethyl-4-[(4-ethyl-1-piperazinyl)[(3-fluorophenyl)imino]methyl]-benzamide] | 97 | 58.5 | > 10000 |  |  |  | 
2 | CCCN(CCC)C(=O)c1ccc(C(=Nc2ccccc2F)N2CCN(CC)CC2)cc1 [Compound 11, 4-[(4-ethyl-1-piperazinyl)[(2-fluorophenyl)imino]methyl]-N,N-dipropyl-benzamide] | 98 |  |  | 256 | > 10000 |  | 
3 | CCN1CCN(C(=Nc2cccc(Br)c2)c2ccc(C(=O)N(CC)CC)cc2)CC1 [Compound 4, 4-[[(3-bromophenyl)imino](4-ethyl-1-piperazinyl)methyl]-N,N-diethyl-benzamide] | 100 | 57.6 | > 10000 |  |  | 7.7 | 
4 | C=CCN1CCN(C(=Nc2ccccc2Cl)c2ccc(C(=O)N(CC)CC)cc2)CC1 [Compound 19, 4-[[(2-chlorophenyl)imino][4-(2-propenyl)-1-piperazinyl]methyl]-N,N-diethyl-benzamide] |  | 20.5 | 7600 |  |  | 40 | 
5 | CCCN1CCN(C(=Nc2cccc(Cl)c2)c2ccc(C(=O)N(CC)CC)cc2)CC1 [Compound 14, 4-[[(3-chlorophenyl)imino](4-propyl-1-piperazinyl)methyl]-N,N-diethyl-benzamide] | 101 | 177 | 9530 |  |  |  | 
6 | 4-[[(2-chlorophenyl)imino](4-ethyl-1-piperazinyl)methyl]-benzoic acid methyl ester [Compound 31] |  |  |  | 222 | > 10000 |  | 100
7 | CCN1CCN(C(=Nc2ccccc2Cl)c2ccc(C(=O)N(CC)CC)cc2)CC1 [Compound 6, 4-[[(2-chlorophenyl)imino](4-ethyl-1-piperazinyl)methyl]-N,N-diethyl-benzamide] | 103 | 91.1 | > 10000 |  |  | 20 | 
8 | CCN1CCN(C(=Nc2cccc(Br)c2)c2ccc(C(=O)OC)cc2)CC1 [Compound 30, 4-[[(3-bromophenyl)imino](4-ethyl-1-piperazinyl)methyl]-benzoic acid methyl ester] | 99 |  |  | 638 | > 10000 |  | 
9 | CCN1CCN(C(=Nc2cccc(F)c2)c2ccc(C(=O)OC)cc2)CC1 [Compound 33, 4-[(4-ethyl-1-piperazinyl)[(3-fluorophenyl)imino]methyl]-benzoic acid methyl ester] |  |  |  |  |  |  | 100
10 | CCCN(CCC)C(=O)c1ccc(C(=Nc2cccc(F)c2)N2CCN(CC)CC2)cc1 [Compound 8, 4-[(4-ethyl-1-piperazinyl)[(3-fluorophenyl)imino]methyl]-N,N-dipropyl-benzamide] | 97 | 60.7 | 6890 |  |  | 7.1 | 
11 | CCN1CCN(C(=Nc2ccccc2)c2ccc(C(=O)OC)cc2)CC1 [Compound 46, 4-[(4-ethyl-1-piperazinyl)(phenylimino)methyl]-benzoic acid methyl ester] | 94 |  |  |  |  | 26.7 | 
12 | CCN1CCN(C(=Nc2ccccc2OC)c2ccc(C(=O)OC)cc2)CC1 [Compound 48, 4-[(4-ethyl-1-piperazinyl)[(2-methoxyphenyl)imino]methyl]-benzoic acid methyl ester] | 60 |  |  |  |  |  | 
13 | CCN1CCN(C(=Nc2cccc(Cl)c2)c2ccc(C(=O)OC)cc2)CC1 [Compound 29, 4-[[(3-chlorophenyl)imino](4-ethyl-1-piperazinyl)methyl]-benzoic acid methyl ester] | 97 |  |  | 283 | > 10000 |  | 
14 | CCN1CCN(C(=Nc2cccc(F)c2)c2ccc(C(=O)OC)cc2)CC1 [Compound 32, 4-[(4-ethyl-1-piperazinyl)[(3-fluorophenyl)imino]methyl]-benzoic acid methyl ester] | 97 | 259 | > 10000 |  |  |  | 
15 | CCCN(CCC)C(=O)c1ccc(C(=Nc2ccccc2Cl)N2CCN(CC)CC2)cc1 [Compound 7, 4-[[(2-chlorophenyl)imino](4-ethyl-1-piperazinyl)methyl]-N,N-dipropyl-benzamide] | 97 |  |  | 292 | 3930 |  | 
16 | CCN(CC)C(=O)c1ccc(C(=Nc2ccccc2Cl)N2CCN(CCc3cccs3)CC2)cc1 [Compound 21, 4-[[(2-chlorophenyl)imino][4-[2-(2-thienyl)ethyl]-1-piperazinyl]methyl]-N,N-diethyl-benzamide] |  | 95.3 | > 10000 |  |  | 40 | 
17 | CCN1CCN(C(=Nc2ccccc2)c2ccc(C(=O)N(CC)CC)cc2)CC1 [Compound 1, N,N-diethyl-4-[(4-ethyl-1-piperazinyl)(phenylimino)methyl]-benzamide] | 106 | 16 | > 10000 |  |  | 40 | 
18 | CCCN1CCN(C(=Nc2ccccc2Cl)c2ccc(C(=O)OC)cc2)CC1 [Compound 34, 4-[[(2-chlorophenyl)imino](4-propyl-1-piperazinyl)methyl]-benzoic acid methyl ester] | 90 | 87.3 | 2070 |  |  |  | 
19 | CCCN(CCC)C(=O)c1ccc(C(=Nc2cc(Cl)cc(Cl)c2)N2CCN(CC)CC2)cc1 [Compound 12, 4-[[(3,5-dichlorophenyl)imino](4-ethyl-1-piperazinyl)methyl]-N,N-dipropyl-benzamide] | 98 |  |  | 674 | > 10000 |  | 
20 | CCN1CCN(C(=Nc2cc(Cl)cc(Cl)c2)c2ccc(C(=O)N(CC)CC)cc2)CC1 [Compound 13, 4-[[(3,5-dichlorophenyl)imino](4-ethyl-1-piperazinyl)methyl]-N,N-diethyl-benzamide] | 100 |  |  | 277 | > 10000 |  | 
21 | CCN(CC)C(=O)c1ccc(C(=Nc2ccccc2Cl)N2CCN(Cc3ccccc3)CC2)cc1 [Compound 20, 4-[[(2-chlorophenyl)imino][4-(phenylmethyl)-1-piperazinyl]methyl]-N,N-diethyl-benzamide] |  | 11.8 | > 10000 |  |  | 23.1 | 
22 | CCN1CCN(C(=Nc2cccc(OC)c2)c2ccc(C(=O)OC)cc2)CC1 [Compound 47, 4-[(4-ethyl-1-piperazinyl)[(3-methoxyphenyl)imino]methyl]-benzoic acid methyl ester] | 91 |  |  |  |  | 26.7 | 
23 | CCN1CCN(C(=Nc2cccc(Cl)c2)c2ccc(C(=O)N(CC)CC)cc2)CC1 [Compound 3] | 103 | 62.6 | > 10000 |  |  | 40 | 
24 | C=CCN1C[C@H](C)N(/C(=N/c2ccccc2)c2ccc(C(=O)N(CC)CC)cc2)C[C@H]1C [Compound 16, 4-[(E)-[(2S,5R)-2,5-dimethyl-4-(2-propenyl)piperazinyl](phenylimino)methyl]-N,N-diethyl-benzamide] |  |  |  | 170 | 4330 | 50 | 
25 | CCCN(CCC)C(=O)c1ccc(C(=Nc2cccc(Br)c2)N2CCN(CC)CC2)cc1 [Compound 5, 4-[[(3-bromophenyl)imino](4-ethyl-1-piperazinyl)methyl]-N,N-dipropyl-benzamide] | 100 | 39.2 | 5510 |  |  | 14.3 | 

Source: patent US6887876B2, “Benzamidine derivatives” (Ortho-McNeil Pharmaceutical, Inc., priority 2000, dated 2005)
